The source of these data is US8309734B2 (Hoffmann-La Roche Inc., priority 2008, dated 2012).

The EC50 is the concentration needed to bring the measured effect to its halfway point. A high value points to lower potency in that assay.

The test concerns the target T1, human GPBAR1 receptor (Homo sapiens, UniProt Q8TDU6).
T1 construct: expressed in transfected cells
T1 sequence (Q8TDU6 1-330): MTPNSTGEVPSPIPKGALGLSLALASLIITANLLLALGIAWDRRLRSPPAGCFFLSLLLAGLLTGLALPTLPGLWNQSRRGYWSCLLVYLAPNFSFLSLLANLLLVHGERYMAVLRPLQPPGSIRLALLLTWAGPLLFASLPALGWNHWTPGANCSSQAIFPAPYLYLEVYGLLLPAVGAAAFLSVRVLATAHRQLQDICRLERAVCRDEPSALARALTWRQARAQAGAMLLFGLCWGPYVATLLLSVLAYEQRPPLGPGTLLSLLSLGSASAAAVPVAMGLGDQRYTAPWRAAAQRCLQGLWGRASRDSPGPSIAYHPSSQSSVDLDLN
The experiment in a line: functional cAMP assay in CHO-dhfr(minus) cells expressing human GPBAR1 receptors. Conditions: cAMP increase (TR-FRET) in CHO-dhfr(minus) cells expressing human GPBAR1; compounds incubated 30 min at 30° C. The test is classed as cell-based.
As for `Cc1cc(Cl)ncc1N(C)C(=O)c1cccnc1Oc1cc(Cl)ccc1Cl` [Example 61, N-(6-Chloro-4-methyl-pyridin-3-yl)-2-(2,5-dichloro-phenoxy)-N-methyl-nicotinamide], a half-maximal effect (EC50) was put at 1980 nM. Then `CC1CCc2ccccc2N1C(=O)c1cccnc1Oc1cc(Cl)ccc1Cl` (centres unmarked) [Example 67, [2-(2,5-Dichloro-phenoxy)-pyridin-3-yl]-(2-methyl-3,4-dihydro-2H-quinolin-1-yl)-methanone], with 1690 nM. Next, `O=C(c1cc(F)cnc1Oc1cccc(Cl)c1)N1CCCc2ccccc21` [Example 25, [2-(3-Chloro-phenoxy)-5-fluoro-pyridin-3-yl]-(3,4-dihydro-2H-quinolin-1-yl)-methanone]: 128 nM. Then `O=C(O)/C=C/c1cc(Cl)c(Oc2ncccc2C(=O)N2CCN(C3CC3)c3ccccc32)cc1Cl` [Example 172, 3-{2,5-Dichloro-4-[3-(4-cyclopropyl-3,4-dihydro-2H-quinoxaline-1-carbonyl)-pyridin-2-yloxy]-phenyl}-acrylic acid], with 132 nM. `O=C(c1ccncc1Oc1ccc(F)c(Cl)c1)N1CCCc2cc(F)ccc21` [Example 104, [3-(3-Chloro-4-fluoro-phenoxy)-pyridin-4-yl]-(6-fluoro-3,4-dihydro-2H-quinolin-1-yl)-methanone]: the midpoint of the response, the EC50, lay at 173 nM. The EC50 values of the last two compounds are within 1.5-fold of each other.

Compound `Cc1c(Cl)cccc1N(C)C(=O)c1cccnc1Oc1cc(Cl)ccc1Cl` [Example 49, N-(3-Chloro-2-methyl-phenyl)-2-(2,5-dichloro-phenoxy)-N-methyl-nicotinamide] displayed an EC50 of 173 nM. In turn, `O=C(c1cccnc1Oc1cc(Cl)ccc1Cl)N1CCCc2ccc(F)cc21` [Example 34, [2-(2,5-Dichloro-phenoxy)-pyridin-3-yl]-(7-fluoro-3,4-dihydro-2H-quinolin-1-yl)-methanone] came in with an EC50 of 58 nM. Then `COc1ccc(C)cc1N(C)C(=O)c1cccnc1Oc1cc(Cl)ccc1Cl` [Example 59, 2-(2,5-Dichloro-phenoxy)-N-(2-methoxy-5-methyl-phenyl)-N-methyl-nicotinamide], with 1550 nM. Next, `COc1ccccc1N(C)C(=O)c1ccncc1Oc1ccc(Cl)cc1Cl` [Example 101, 3-(2,4-Dichloro-phenoxy)-N-(2-methoxy-phenyl)-N-methyl-isonicotinamide]: 150 nM; `O=C(c1ccncc1Oc1ccc(Cl)cc1Cl)N1CCCc2cc(F)cc(F)c21` [Example 98, [3-(2,4-Dichloro-phenoxy)-pyridin-4-yl]-(6,8-difluoro-3,4-dihydro-2H-quinolin-1-yl)-methanone]: 217 nM; `COc1cccc(OC)c1N(C)C(=O)c1cccnc1Oc1cc(Cl)ccc1Cl` [Example 60, 2-(2,5-Dichloro-phenoxy)-N-(2,6-dimethoxy-phenyl)-N-methyl-nicotinamide]: 1550 nM. Turning to `Cc1ccccc1N(C)C(=O)c1ccncc1Oc1ccc(F)c(Cl)c1` [Example 106, 3-(3-Chloro-4-fluoro-phenoxy)-N-methyl-N-o-tolyl-isonicotinamide], a half-maximal response (EC50) required 425 nM. `O=C(c1cccnc1Oc1cc(C(F)(F)F)ccc1F)N1CCCc2ccccc21` [Example 144, (3,4-Dihydro-2H-quinolin-1-yl)-[2-(2-fluoro-5-trifluoromethyl-phenoxy)-pyridin-3-yl]-methanone] registered an EC50 of 286 nM. The compound `CN(C(=O)c1cccnc1Oc1cc(Cl)ccc1Cl)c1ccccc1-c1ccccc1` [Example 43, N-Biphenyl-2-yl-2-(2,5-dichloro-phenoxy)-N-methyl-nicotinamide] showed an EC50 of 496 nM. This EC50 lies about 1.7-fold higher than the previous one.

The compound `O=C(O)CCc1ccc(S(=O)(=O)N2CCN(C(=O)c3cccnc3Oc3cc(Cl)ccc3Cl)c3ccccc32)cc1` [Example 143, 3-(4-{4-[2-(2,5-Dichloro-phenoxy)-pyridine-3-carbonyl]-3,4-dihydro-2H-quinoxaline-1-sulfonyl}-phenyl)-propionic acid] yielded an EC50 of 745 nM. Then `O=C(c1cccnc1Oc1cccc(OC(F)(F)F)c1)N1CCCc2ccccc21` [Example 16, (3,4-Dihydro-2H-quinolin-1-yl)-[2-(3-trifluoromethoxy-phenoxy)-pyridin-3-yl]-methanone], with 1920 nM; and `Cc1ccc(Cl)cc1N(C)C(=O)c1cccnc1Oc1cc(Cl)ccc1Cl` [Example 50, N-(5-Chloro-2-methyl-phenyl)-2-(2,5-dichloro-phenoxy)-N-methyl-nicotinamide], with 631 nM. Regarding `O=C(O)C1CCCN1C(=O)CCc1cc(Cl)c(Oc2ncccc2C(=O)N2CCN(C3CC3)c3ccccc32)cc1Cl` (centres unmarked) [Example 180, 1-(3-{2,5-Dichloro-4-[3-(4-cyclopropyl-3,4-dihydro-2H-quinoxaline-1-carbonyl)-pyridin-2-yloxy]-phenyl}-propionyl)-pyrrolidine-2-carboxylic acid], the EC50 was determined as 71 nM.

As for `O=C(c1ccncc1Oc1cc(Cl)ccc1Cl)N1CCCc2ccc(F)cc21` [Example 90, [3-(2,5-Dichloro-phenoxy)-pyridin-4-yl]-(7-fluoro-3,4-dihydro-2H-quinolin-1-yl)-methanone], it took 19 nM to reach a half-maximal effect (EC50). The compound `O=C(c1ccc(C(F)(F)F)nc1Oc1cc(Cl)ccc1Cl)N1CCCc2ccccc21` [Example 29, [2-(2,5-Dichloro-phenoxy)-6-trifluoromethyl-pyridin-3-yl]-(3,4-dihydro-2H-quinolin-1-yl)-methanone] displayed an EC50 of 144 nM. In turn, `COc1ncccc1N(C)C(=O)c1cc(F)cnc1Oc1cc(Cl)ccc1Cl` [Example 145, 2-(2,5-Dichloro-phenoxy)-5-fluoro-N-(2-methoxy-pyridin-3-yl)-N-methyl-nicotinamide] yielded an EC50 of 29 nM. Then `CN(C(=O)c1cccnc1Oc1cc(Cl)ccc1Cl)c1ccccc1C#N` [Example 62, N-(2-Cyano-phenyl)-2-(2,5-dichloro-phenoxy)-N-methyl-nicotinamide], with 820 nM; and `O=C(O)CN1CCN(C(=O)c2cc(F)cnc2Oc2cc(Cl)ccc2Cl)c2ccccc21` [Example 155, {4-[2-(2,5-Dichloro-phenoxy)-5-fluoro-pyridine-3-carbonyl]-3,4-dihydro-2H-quinoxalin-1-yl}-acetic acid], with 788 nM; and `O=C(c1cccnc1Oc1cccc(C(F)(F)F)c1)N1CCCc2ccccc21` [Example 1, (3,4-Dihydro-2H-quinolin-1-yl)-[2-(3-trifluoromethyl-phenoxy)-pyridin-3-yl]-methanone], with 396 nM. Next, `O=C(c1ccccc1)c1cccc(Oc2ncccc2C(=O)N2CCCc3ccccc32)c1` [Example 15, [2-(3-Benzoyl-phenoxy)-pyridin-3-yl]-(3,4-dihydro-2H-quinolin-1-yl)-methanone]: 1690 nM.

In the case of `COc1ccc(Cl)c(N(C)C(=O)c2cc(F)cnc2Oc2cc(Cl)ccc2Cl)c1Cl` [Example 146, N-(2,6-Dichloro-3-methoxy-phenyl)-2-(2,5-dichloro-phenoxy)-5-fluoro-N-methyl-nicotinamide], the EC50 came to 1970 nM. The EC50 values of the last two compounds are within 1.5-fold of each other. As for `O=C(O)c1ccc(CCc2cc(Cl)c(Oc3ncccc3C(=O)N3CCN(C4CC4)c4ccccc43)cc2Cl)cc1Cl` [Example 169, 2-Chloro-4-(2-{2,5-dichloro-4-[3-(4-cyclopropyl-3,4-dihydro-2H-quinoxaline-1-carbonyl)-pyridin-2-yloxy]-phenyl}-ethyl)-benzoic acid], the EC50 is 127 nM. Next, `O=C(c1cc(F)cnc1Oc1cc(Cl)ccc1Cl)N1CCN(C2CCC2)c2ccccc21` [Example 150, (4-Cyclobutyl-3,4-dihydro-2H-quinoxalin-1-yl)-[2-(2,5-dichloro-phenoxy)-5-fluoro-pyridin-3-yl]-methanone]: 58 nM; `Cc1ccc2c(c1)CCCN2C(=O)c1cccnc1Oc1ccc(F)c(Cl)c1` [Example 77, [2-(3-Chloro-4-fluoro-phenoxy)-pyridin-3-yl]-(6-methyl-3,4-dihydro-2H-quinolin-1-yl)-methanone]: 765 nM. `O=C(c1cc(F)cnc1Oc1cc(Cl)ccc1Cl)N1CCN(CC2CCC2)c2ccccc21` [Example 152, (4-Cyclobutylmethyl-3,4-dihydro-2H-quinoxalin-1-yl)-[2-(2,5-dichloro-phenoxy)-5-fluoro-pyridin-3-yl]-methanone] gave an EC50 of 689 nM. Then `O=C(c1cccnc1Oc1cccc(Cl)c1Cl)N1CCCc2ccccc21` [Example 12, [2-(2,3-Dichloro-phenoxy)-pyridin-3-yl]-(3,4-dihydro-2H-quinolin-1-yl)-methanone], with 1150 nM; and `O=C(c1cc(F)cnc1Oc1cc(Cl)ccc1Cl)N1CCN(Cc2ccoc2)c2ccccc21` [Example 151, [2-(2,5-Dichloro-phenoxy)-5-fluoro-pyridin-3-yl]-(4-furan-3-ylmethyl-3,4-dihydro-2H-quinoxalin-1-yl)-methanone], with 1070 nM. Then `O=C(c1cccnc1Oc1cc(Cl)c(Br)cc1Cl)N1CCCc2ccccc21` [Example 165, [2-(4-Bromo-2,5-dichloro-phenoxy)-pyridin-3-yl]-(3,4-dihydro-2H-quinolin-1-yl)-methanone], with 340 nM. On to `Cc1ccc(Cl)cc1Oc1ncccc1C(=O)N1CCCc2ccccc21` [Example 11, [2-(5-Chloro-2-methyl-phenoxy)-pyridin-3-yl]-(3,4-dihydro-2H-quinolin-1-yl)-methanone], for which the midpoint of the response, the EC50, lay at 153 nM. Next, `Cc1ccc2c(c1)CCCN2C(=O)c1cc(F)ccc1Oc1cc(Cl)ccc1Cl` [Example 116, [2-(2,5-Dichloro-phenoxy)-5-fluoro-phenyl]-(6-methyl-3,4-dihydro-2H-quinolin-1-yl)-methanone]: 1160 nM.
